From US9963456B2, “Pyrrolopyrimidine compound or salt thereof and compositions containing the pyrrolopyrimidine compound or salt thereof” (TAIHO PHARMACEUTICAL CO., LTD., priority 2014, dated 2018) come the findings set out here.

In the test the target is NAE (heterodimer of APPBP1 and UBA3) (Homo sapiens (Human), UniProt Q8TBC4). The test can be described thus: Nedd8 conjugation inhibitory activity (AlphaScreen assay). The format is biochemical. Conditions: purified NAE, GST-UBC12, Biotin-Nedd8, ATP.
Chain of NAE (heterodimer of APPBP1 and UBA3) (Q8TBC4 whole entry): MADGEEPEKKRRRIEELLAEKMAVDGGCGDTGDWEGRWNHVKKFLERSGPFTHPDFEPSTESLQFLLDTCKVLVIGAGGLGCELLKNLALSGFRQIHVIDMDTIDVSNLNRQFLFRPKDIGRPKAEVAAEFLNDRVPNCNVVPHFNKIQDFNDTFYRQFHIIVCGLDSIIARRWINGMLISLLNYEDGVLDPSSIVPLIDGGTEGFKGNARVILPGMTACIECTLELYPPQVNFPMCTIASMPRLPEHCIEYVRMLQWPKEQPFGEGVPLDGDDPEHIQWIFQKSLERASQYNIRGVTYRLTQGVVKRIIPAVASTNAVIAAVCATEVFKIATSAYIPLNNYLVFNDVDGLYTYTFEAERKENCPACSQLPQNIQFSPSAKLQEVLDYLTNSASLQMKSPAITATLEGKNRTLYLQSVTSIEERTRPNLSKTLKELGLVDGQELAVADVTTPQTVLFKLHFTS
Chain of NAE (heterodimer of APPBP1 and UBA3) (Q13564 whole entry partner): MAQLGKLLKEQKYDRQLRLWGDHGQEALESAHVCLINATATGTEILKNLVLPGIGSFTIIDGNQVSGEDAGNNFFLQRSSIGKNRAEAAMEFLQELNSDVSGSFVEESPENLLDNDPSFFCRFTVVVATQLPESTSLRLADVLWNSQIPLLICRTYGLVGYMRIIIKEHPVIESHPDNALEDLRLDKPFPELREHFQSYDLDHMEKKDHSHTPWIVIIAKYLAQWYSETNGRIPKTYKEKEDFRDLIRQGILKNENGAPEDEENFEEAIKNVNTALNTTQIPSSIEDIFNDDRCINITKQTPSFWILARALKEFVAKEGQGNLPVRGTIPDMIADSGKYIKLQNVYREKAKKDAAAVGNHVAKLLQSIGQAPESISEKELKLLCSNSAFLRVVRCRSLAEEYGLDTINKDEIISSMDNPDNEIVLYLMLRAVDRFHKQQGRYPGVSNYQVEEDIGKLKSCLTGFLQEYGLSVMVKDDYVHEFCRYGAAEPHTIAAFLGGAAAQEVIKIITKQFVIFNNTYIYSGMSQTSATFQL

As to `CCOc1cc(N2C3CCC2COC3)cc(F)c1C#Cc1cn([C@@H]2C[C@H](CNS(N)(=O)=O)[C@@H](O)[C@H]2O)c2ncnc(N)c12` [Example 110, 8-[4-[2-[4-Amino-7-[(1R,2S,3R,4R)-2,3-dihydroxy-4-[(sulfamoylamino)methyl]cyclopentyl]pyrrolo[2,3-d]pyrimidin-5-yl]ethynyl]-3-ethoxy-5-fluoro-phenyl]-3-oxa-8-azabicyclo[3,2,1]octane], half-maximal inhibition (IC50) required 0.013 µM.

`N#Cc1ccccc1C#Cc1cn([C@@H]2O[C@H](CNS(N)(=O)=O)[C@@H](O)[C@H]2O)c2ncnc(N)c12` [Example 49, 4-Amino-5-[2-(2-cyanophenyl)ethynyl]-7-[(2R,3R,4S,5R)-3,4-dihydroxy-5-[(sulfamoylamino)methyl]tetrahydrofuran-2-yl]pyrrolo[2,3-d]pyrimidine] displayed an IC50 of 0.018 µM.

Compound `CSc1cccc(F)c1C#Cc1cn([C@@H]2O[C@H](CNS(N)(=O)=O)[C@@H](O)[C@H]2O)c2ncnc(N)c12` [Example 59, 4-Amino-7-[(2R,3R,4S,5R)-3,4-dihydroxy-5-[(sulfamoylamino)methyl]tetrahydrofuran-2-yl]-5-[2-(2-fluoro-6-methylsulfanyl-phenyl)ethynyl]pyrrolo[2,3-d]pyrimidine] gave a half-inhibitory concentration (IC50) of 0.0085 µM.

`Nc1ncnc2c1c(C#Cc1cccc3c1S(=O)(=O)CC3)cn2[C@@H]1C[C@H](CNS(N)(=O)=O)[C@@H](O)[C@H]1O` [Example 117, 4-Amino-7-[(1R,2S,3R,4R)-2,3-dihydroxy-4-[(sulfamoylamino)methyl]cyclopentyl]-5-[2-(1,1-dioxo-2,3-dihydrobenzothiophen-7-yl)ethynyl]pyrrolo[2,3-d]pyrimidine] yielded an IC50 of 0.0043 µM.

Consider `Nc1ncnc2c1c(C#Cc1cccc3c1S(=O)(=O)CCC3)cn2[C@@H]1C[C@H](CNS(N)(=O)=O)[C@@H](O)[C@H]1O` [Example 123, 4-Amino-7-[(1R,2S,3R,4R)-2,3-dihydroxy-4-[(sulfamoylamino)methyl]cyclopentyl]-5-[2-(1,1-dioxo-3,4-dihydro-2H-thiochromen-8-yl)ethynyl]pyrrolo[2,3-d]pyrimidine], for which the IC50 was determined as 0.0091 µM.

The compound `CN1CCN(c2cc(F)c(C#Cc3cn([C@@H]4C[C@H](CNS(N)(=O)=O)[C@@H](O)[C@H]4O)c4ncnc(N)c34)c(F)c2)CC1` [Example 103, 4-Amino-5-[2-[2,6-difluoro-4-(4-methylpiperazin-1-yl)phenyl]ethynyl]-7-[(1R,2S,3R,4R)-2,3-dihydroxy-4-[(sulfamoylamino)methyl]cyclopentyl]pyrrolo[2,3-d]pyrimidine] gave an IC50 of 0.013 µM.

`CCSc1cccc(F)c1C#Cc1cn([C@@H]2C[C@H](CNS(N)(=O)=O)[C@@H](O)[C@H]2O)c2ncnc(N)c12` [Example 99, 4-Amino-7-[(1R,2S,3R,4R)-2,3-dihydroxy-4-[(sulfamoylamino)methyl]cyclopentyl]-5-[2-(2-ethylsulfanyl-6-fluoro-phenyl)ethynyl]pyrrolo[2,3-d]pyrimidine] registered an IC50 of 0.019 µM.

Compound `Nc1ncnc2c1c(C#Cc1c(F)cc(N3CC[C@@H](F)C3)cc1F)cn2[C@@H]1C[C@H](CNS(N)(=O)=O)[C@@H](O)[C@H]1O` [Example 115, 4-Amino-5-[2-[2,6-difluoro-4-[(3R)-3-fluoropyrrolidin-1-yl]phenyl]ethynyl]-7-[(1R,2S,3R,4R)-2,3-dihydroxy-4-[(sulfamoylamino)methyl]cyclopentyl]pyrrolo[2,3-d]pyrimidine] registered an IC50 of 0.004 µM.

In turn, `COc1cnc(OC)c(F)c1C#Cc1cn([C@@H]2O[C@H](CNS(N)(=O)=O)[C@@H](O)[C@H]2O)c2ncnc(N)c12` [Example 81, 4-Amino-7-[(2R,3R,4S,5R)-3,4-dihydroxy-5-[(sulfamoylamino)methyl]tetrahydrofuran-2-yl]-5-[2-(3-fluoro-2,5-dimethoxy-4-pyridyl)ethynyl]pyrrolo[2,3-d]pyrimidine] showed an IC50 of 0.0056 µM.

For the compound `NC(=O)c1cccc(F)c1C#Cc1cn([C@@H]2O[C@H](CNS(N)(=O)=O)[C@@H](O)[C@H]2O)c2ncnc(N)c12` [Example 79, 2-[2-[4-Amino-7-[(2R,3R,4S,5R)-3,4-dihydroxy-5-[(sulfamoylamino)methyl]tetrahydrofuran-2-yl]pyrrolo[2,3-d]pyrimidin-5-yl]ethynyl]-3-fluorobenzamide], the IC50 came to 0.0032 µM.

The compound `Nc1ccc(C#Cc2cn([C@@H]3O[C@H](CNS(N)(=O)=O)[C@@H](O)[C@H]3O)c3ncnc(N)c23)c(F)c1` [Example 20, 4-Amino-5-[2-(4-amino-2-fluoro-phenyl)ethynyl]-7-[(2R,3R,4S,5R)-3,4-dihydroxy-5-[(sulfamoylamino)methyl]tetrahydrofuran-2-yl]pyrrolo[2,3-d]pyrimidine] came in with a 50% inhibitory concentration (IC50) of 0.0091 µM.

Turning to `CCOc1cc(N2CCOCC2)cc(F)c1C#Cc1cn([C@@H]2C[C@H](CNS(N)(=O)=O)[C@@H](O)[C@H]2O)c2ncnc(N)c12` [Example 112, 4-[4-[2-[4-Amino-7-[(1R,2S,3R,4R)-2,3-dihydroxy-4-[(sulfamoylamino)methyl]cyclopentyl]pyrrolo[2,3-d]pyrimidin-5-yl]ethynyl]-3-ethoxy-5-fluoro-phenyl]morpholine], half-maximal inhibition (IC50) was put at 0.015 µM.

Compound `NC(=O)c1cccc(COc2ccc(C#Cc3cn([C@@H]4O[C@H](CNS(N)(=O)=O)[C@@H](O)[C@H]4O)c4ncnc(N)c34)cc2)c1` [Example 91, 3-[[4-[2-[4-Amino-7-[(2R,3R,4S,5R)-3,4-dihydroxy-5-[(sulfamoylamino)methyl]tetrahydrofuran-2-yl]pyrrolo[2,3-d]pyrimidin-5-yl]ethynyl]phenoxy]methyl]benzamide] returned a half-inhibitory concentration (IC50) of 0.018 µM.

Consider `CCOc1cccc(F)c1C#Cc1cn([C@H]2C[C@H](O)[C@@H](CNS(N)(=O)=O)O2)c2ncnc(N)c12` [Example 127, 4-Amino-5-[2-(2-ethoxy-6-fluoro-phenyl)ethynyl]-7-[(2R,4S,5R)-4-hydroxy-5-[(sulfamoylamino)methyl]tetrahydrofuran-2-yl]pyrrolo[2,3-d]pyrimidine], for which the IC50 stood at 0.019 µM.

Regarding `Nc1ncnc2c1c(C#Cc1c(F)cc(OCn3nccn3)cc1F)cn2[C@@H]1O[C@H](CNS(N)(=O)=O)[C@@H](O)[C@H]1O` [Example 67, 4-Amino-5-[2-[2,6-difluoro-4-(triazol-2-ylmethoxy)phenyl]ethynyl]-7-[(2R,3R,4S,5R)-3,4-dihydroxy-5-[(sulfamoylamino)methyl]tetrahydrofuran-2-yl]pyrrolo[2,3-d]pyrimidine], the midpoint of inhibition, the IC50, lay at 0.0085 µM.

Take `Nc1ncnc2c1c(C#Cc1c(F)cc(N3CCOCC3)cc1F)cn2[C@@H]1C[C@H](CNS(N)(=O)=O)[C@@H](O)[C@H]1O` [Example 101, 4-[4-[2-[4-amino-7-[(1R,2S,3R,4R)-2,3-dihydroxy-4-[(sulfamoylamino)methyl]cyclopentyl]pyrrolo[2,3-d]pyrimidin-5-yl]ethynyl]-3,5-difluoro-phenyl]morpholine]: the IC50 is 0.0076 µM.

`Nc1ncnc2c1c(C#Cc1c(F)cccc1OCC1CC1)cn2[C@@H]1O[C@H](CNS(N)(=O)=O)[C@@H](O)[C@H]1O` [Example 86, 4-Amino-5-[2-[2-(cyclopropylmethoxy)-6-fluoro-phenyl]ethynyl]-7-[(2R,3R,4S,5R)-3,4-dihydroxy-5-[(sulfamoylamino)methyl]tetrahydrofuran-2-yl]pyrrolo[2,3-d]pyrimidine] had an IC50 of 0.0054 µM.

`CCSc1ccccc1C#Cc1cn([C@@H]2O[C@H](CNS(N)(=O)=O)[C@@H](O)[C@H]2O)c2ncnc(N)c12` [Example 82, 4-Amino-7-[(2R,3R,4S,5R)-3,4-dihydroxy-5-[(sulfamoylamino)methyl]tetrahydrofuran-2-yl]-5-[2-(2-ethylsulfanylphenyl)ethynyl]pyrrolo[2,3-d]pyrimidine] registered an IC50 of 0.01 µM.

In the case of `Nc1ncnc2c1c(C#Cc1c(F)cc(N3CCC(O)CC3)cc1F)cn2[C@@H]1C[C@H](CNS(N)(=O)=O)[C@@H](O)[C@H]1O` [Example 119, 4-Amino-5-[2-[2,6-difluoro-4-(4-hydroxy-1-piperidyl)phenyl]ethynyl]-7-[(1R,2S,3R,4R)-2,3-dihydroxy-4-[(sulfamoylamino)methyl]cyclopentyl]pyrrolo[2,3-d]pyrimidine], the IC50 came to 0.0042 µM.

`Nc1ncnc2c1c(C#Cc1cccc3c1S(=O)(=O)CCC3)cn2[C@@H]1O[C@H](CNS(N)(=O)=O)[C@@H](O)[C@H]1O` [Example 83, 4-Amino-7-[(2R,3R,4S,5R)-3,4-dihydroxy-5-[(sulfamoylamino)methyl]tetrahydrofuran-2-yl]-5-[2-(1,1-dioxo-3,4-dihydro-2H-thiochromen-8-yl)ethynyl]pyrrolo[2,3-d]pyrimidine] gave an IC50 of 0.019 µM.

As for `Nc1ncnc2c1c(C#Cc1c(F)ccnc1F)cn2[C@@H]1O[C@H](CNS(N)(=O)=O)[C@@H](O)[C@H]1O` [Example 69, 4-Amino-5-[2-(2,4-difluoro-3-pyridyl)ethynyl]-7-[(2R,3R,4S,5R)-3,4-dihydroxy-5-[(sulfamoylamino)methyl]tetrahydrofuran-2-yl]pyrrolo[2,3-d]pyrimidine], the IC50 worked out at 0.015 µM.

Consider `Nc1ncnc2c1c(C#Cc1c(F)cc(N3CC[C@@H](O)C3)cc1F)cn2[C@@H]1O[C@H](CNS(N)(=O)=O)[C@@H](O)[C@H]1O` [Example 30, 4-Amino-5-[2-[2,6-difluoro-4-[(3R)-3-hydroxypyrrolidin-1-yl]phenyl]ethynyl]-7-[(2R,3R,4S,5R)-3,4-dihydroxy-5-[(sulfamoylamino)methyl]tetrahydrofuran-2-yl]pyrrolo[2,3-d]pyrimidine], for which it took 0.027 µM to reach half-maximal inhibition (IC50).

Turning to `N#Cc1cc(F)c(C#Cc2cn([C@@H]3O[C@H](CNS(N)(=O)=O)[C@@H](O)[C@H]3O)c3ncnc(N)c23)c(F)c1` [Example 57, 4-Amino-5-[2-(4-cyano-2,6-difluoro-phenyl)ethynyl]-7-[(2R,3R,4S,5R)-3,4-dihydroxy-5-[(sulfamoylamino)methyl]tetrahydrofuran-2-yl]pyrrolo[2,3-d]pyrimidine], the IC50 worked out at 0.0058 µM.

In turn, `CCOc1cc(N2CCCCC2)cc(F)c1C#Cc1cn([C@@H]2C[C@H](CNS(N)(=O)=O)[C@@H](O)[C@H]2O)c2ncnc(N)c12` [Example 106, 4-Amino-7-[(1R,2S,3R,4R)-2,3-dihydroxy-4-[(sulfamoylamino)methyl]cyclopentyl]-5-[2-[2-ethoxy-6-fluoro-4-(1-piperidyl)phenyl]ethynyl]pyrrolo[2,3-d]pyrimidine] had a concentration for half-maximal inhibition (IC50) of 0.028 µM.

What is called IC50 is the concentration that gives 50% inhibition. The low end stands for greater potency, the high end for weaker potency.
